Assays:
Assay in all cases: Nanosyn kinase profiling
Format in all cases: biochemical
Settings in all cases: read-out: Percentage inhibition; for inhibition at 0.1 µM: 0.1 µM inhibitor; for inhibition at 1 µM: 1 µM inhibitor
FGFR4 = target: T1, FGFR4 (Homo sapiens, UniProt P22455)
T1 construct: purchased Nanosyn (enzymatic panel); SGC in-house recombinant human kinases (DSF panel); Invitrogen (ALK1-6)
How it was run: (§1)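 Percent inhibition of each kinase was measured with the inhibitor at 0.1 µM and at 1 µM, as part of a 200-kinase human selectivity panel.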

EPHB2 = target: T2, EPHB2 (Homo sapiens, UniProt P29323)
T2 construct: purchased Nanosyn (enzymatic panel); SGC in-house recombinant human kinases (DSF panel); Invitrogen (ALK1-6)
T2 sequence (P29323 19-1055): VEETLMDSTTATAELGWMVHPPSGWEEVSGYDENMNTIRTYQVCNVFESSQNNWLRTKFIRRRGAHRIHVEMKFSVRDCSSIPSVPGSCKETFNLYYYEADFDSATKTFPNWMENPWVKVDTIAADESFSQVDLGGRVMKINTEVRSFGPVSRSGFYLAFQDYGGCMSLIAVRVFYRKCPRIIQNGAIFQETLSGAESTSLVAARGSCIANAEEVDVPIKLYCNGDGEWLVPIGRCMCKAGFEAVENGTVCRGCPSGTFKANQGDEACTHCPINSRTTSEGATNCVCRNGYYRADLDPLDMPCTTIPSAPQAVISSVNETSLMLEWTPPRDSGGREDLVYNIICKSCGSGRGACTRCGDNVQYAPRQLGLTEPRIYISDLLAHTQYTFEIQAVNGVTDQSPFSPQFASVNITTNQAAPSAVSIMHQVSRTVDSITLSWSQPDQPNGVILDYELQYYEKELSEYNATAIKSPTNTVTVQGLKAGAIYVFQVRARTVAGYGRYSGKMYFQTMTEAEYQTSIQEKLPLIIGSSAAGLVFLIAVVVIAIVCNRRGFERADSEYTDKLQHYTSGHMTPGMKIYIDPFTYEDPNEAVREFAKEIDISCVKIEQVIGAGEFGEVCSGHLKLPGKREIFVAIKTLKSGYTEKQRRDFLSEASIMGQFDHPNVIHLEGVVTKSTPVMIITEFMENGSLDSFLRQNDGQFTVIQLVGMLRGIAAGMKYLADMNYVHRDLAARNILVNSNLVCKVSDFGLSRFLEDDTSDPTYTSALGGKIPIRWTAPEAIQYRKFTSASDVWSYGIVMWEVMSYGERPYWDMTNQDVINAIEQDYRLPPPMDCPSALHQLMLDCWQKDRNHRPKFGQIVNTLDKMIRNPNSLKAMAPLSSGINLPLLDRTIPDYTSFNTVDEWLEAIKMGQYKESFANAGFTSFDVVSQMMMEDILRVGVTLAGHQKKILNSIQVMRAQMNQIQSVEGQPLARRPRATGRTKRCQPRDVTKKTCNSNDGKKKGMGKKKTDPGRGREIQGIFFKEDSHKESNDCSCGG
How it was run: as §1

PIM1 = target: T3, PIM1 (Homo sapiens, UniProt P11309)
T3 construct: purchased Nanosyn (enzymatic panel); SGC in-house recombinant human kinases (DSF panel); Invitrogen (ALK1-6)
T3 sequence (P11309 whole entry): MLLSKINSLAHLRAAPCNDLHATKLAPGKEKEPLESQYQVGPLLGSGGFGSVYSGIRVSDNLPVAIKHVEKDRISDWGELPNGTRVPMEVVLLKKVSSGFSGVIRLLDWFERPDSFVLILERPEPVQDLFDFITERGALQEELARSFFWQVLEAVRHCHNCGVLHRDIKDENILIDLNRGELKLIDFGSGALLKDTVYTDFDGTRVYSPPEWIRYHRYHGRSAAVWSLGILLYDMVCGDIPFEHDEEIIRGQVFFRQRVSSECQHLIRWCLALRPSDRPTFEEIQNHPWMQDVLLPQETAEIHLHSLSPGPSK
How it was run: as §1

CDK5/p35 = target: T4, CDK5/p35 (Homo sapiens, UniProt Q00535)
T4 construct: purchased Nanosyn (enzymatic panel); SGC in-house recombinant human kinases (DSF panel); Invitrogen (ALK1-6)
T4 sequence (Q00535 whole entry): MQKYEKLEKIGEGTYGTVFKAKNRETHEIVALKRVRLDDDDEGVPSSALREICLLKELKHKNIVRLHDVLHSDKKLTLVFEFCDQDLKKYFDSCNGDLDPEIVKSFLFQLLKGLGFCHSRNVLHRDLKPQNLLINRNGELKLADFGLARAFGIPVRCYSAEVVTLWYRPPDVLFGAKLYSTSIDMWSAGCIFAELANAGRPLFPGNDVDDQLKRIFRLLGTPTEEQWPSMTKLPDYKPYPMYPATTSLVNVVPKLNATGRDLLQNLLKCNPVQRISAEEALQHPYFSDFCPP
T4 sequence (Q15078 whole entry partner): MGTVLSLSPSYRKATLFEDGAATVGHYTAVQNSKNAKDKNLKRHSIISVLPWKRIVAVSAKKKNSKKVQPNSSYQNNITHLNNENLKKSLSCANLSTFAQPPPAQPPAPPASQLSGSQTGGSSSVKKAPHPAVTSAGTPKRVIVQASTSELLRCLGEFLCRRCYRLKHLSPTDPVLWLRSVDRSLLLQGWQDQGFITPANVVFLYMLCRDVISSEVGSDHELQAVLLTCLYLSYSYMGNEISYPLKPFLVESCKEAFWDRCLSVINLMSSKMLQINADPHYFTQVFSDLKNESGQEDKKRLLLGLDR
How it was run: as §1

IRAK4 = target: T5, IRAK4 (Homo sapiens, UniProt Q9NWZ3)
T5 construct: purchased Nanosyn (enzymatic panel); SGC in-house recombinant human kinases (DSF panel); Invitrogen (ALK1-6)
T5 sequence (Q9NWZ3 1-460): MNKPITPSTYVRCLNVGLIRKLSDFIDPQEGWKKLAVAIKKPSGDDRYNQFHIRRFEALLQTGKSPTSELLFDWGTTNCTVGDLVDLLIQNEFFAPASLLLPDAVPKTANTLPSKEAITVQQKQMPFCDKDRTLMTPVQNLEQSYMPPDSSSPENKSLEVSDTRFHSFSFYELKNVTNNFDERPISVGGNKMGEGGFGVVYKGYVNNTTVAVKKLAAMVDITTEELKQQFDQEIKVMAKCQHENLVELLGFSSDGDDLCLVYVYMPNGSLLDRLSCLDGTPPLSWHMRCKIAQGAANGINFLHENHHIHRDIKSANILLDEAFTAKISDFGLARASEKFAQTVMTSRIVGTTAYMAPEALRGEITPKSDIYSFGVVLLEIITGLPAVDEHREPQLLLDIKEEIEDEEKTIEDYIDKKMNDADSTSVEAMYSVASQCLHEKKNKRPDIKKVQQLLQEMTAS
How it was run: as §1

ROCK2 = target: T6, ROCK2 (Homo sapiens, UniProt O75116)
T6 construct: purchased Nanosyn (enzymatic panel); SGC in-house recombinant human kinases (DSF panel); Invitrogen (ALK1-6)
T6 sequence (O75116 whole entry): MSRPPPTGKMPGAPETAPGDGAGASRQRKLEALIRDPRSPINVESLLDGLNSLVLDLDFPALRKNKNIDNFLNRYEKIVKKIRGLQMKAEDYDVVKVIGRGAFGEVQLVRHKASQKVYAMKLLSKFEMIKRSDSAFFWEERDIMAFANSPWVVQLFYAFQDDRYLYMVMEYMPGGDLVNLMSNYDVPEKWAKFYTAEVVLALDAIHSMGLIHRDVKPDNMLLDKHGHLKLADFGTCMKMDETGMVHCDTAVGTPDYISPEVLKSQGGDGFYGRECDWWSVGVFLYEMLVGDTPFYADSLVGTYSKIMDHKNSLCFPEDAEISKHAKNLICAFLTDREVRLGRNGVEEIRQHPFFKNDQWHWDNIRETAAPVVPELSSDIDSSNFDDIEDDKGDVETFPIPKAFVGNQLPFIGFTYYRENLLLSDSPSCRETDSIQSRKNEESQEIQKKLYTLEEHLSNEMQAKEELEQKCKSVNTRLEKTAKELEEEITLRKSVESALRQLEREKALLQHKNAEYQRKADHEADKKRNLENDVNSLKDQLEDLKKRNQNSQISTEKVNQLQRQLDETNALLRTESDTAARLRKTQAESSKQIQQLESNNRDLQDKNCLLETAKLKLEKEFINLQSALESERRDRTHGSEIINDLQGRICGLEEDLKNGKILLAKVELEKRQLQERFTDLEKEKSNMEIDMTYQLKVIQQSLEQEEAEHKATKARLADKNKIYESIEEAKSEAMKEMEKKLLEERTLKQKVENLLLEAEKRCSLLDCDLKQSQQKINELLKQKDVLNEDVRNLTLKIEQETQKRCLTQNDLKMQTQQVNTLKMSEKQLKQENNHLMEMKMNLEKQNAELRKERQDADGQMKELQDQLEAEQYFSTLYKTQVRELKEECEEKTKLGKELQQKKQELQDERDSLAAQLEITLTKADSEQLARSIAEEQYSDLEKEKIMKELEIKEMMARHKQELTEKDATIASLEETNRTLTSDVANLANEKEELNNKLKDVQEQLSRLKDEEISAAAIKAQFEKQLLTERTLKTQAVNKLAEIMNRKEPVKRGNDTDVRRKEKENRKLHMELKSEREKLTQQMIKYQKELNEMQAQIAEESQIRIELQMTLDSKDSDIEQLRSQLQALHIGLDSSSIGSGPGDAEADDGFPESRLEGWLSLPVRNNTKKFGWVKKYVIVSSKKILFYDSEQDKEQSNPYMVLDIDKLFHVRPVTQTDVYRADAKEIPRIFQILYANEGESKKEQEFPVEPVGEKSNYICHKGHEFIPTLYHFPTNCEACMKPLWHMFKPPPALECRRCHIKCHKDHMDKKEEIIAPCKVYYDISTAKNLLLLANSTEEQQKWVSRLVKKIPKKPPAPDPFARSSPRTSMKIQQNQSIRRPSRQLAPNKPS
How it was run: as §1

MET = target: T7, MET (Homo sapiens, UniProt P08581)
T7 construct: purchased Nanosyn (enzymatic panel); SGC in-house recombinant human kinases (DSF panel); Invitrogen (ALK1-6)
T7 sequence (P08581 25-1390): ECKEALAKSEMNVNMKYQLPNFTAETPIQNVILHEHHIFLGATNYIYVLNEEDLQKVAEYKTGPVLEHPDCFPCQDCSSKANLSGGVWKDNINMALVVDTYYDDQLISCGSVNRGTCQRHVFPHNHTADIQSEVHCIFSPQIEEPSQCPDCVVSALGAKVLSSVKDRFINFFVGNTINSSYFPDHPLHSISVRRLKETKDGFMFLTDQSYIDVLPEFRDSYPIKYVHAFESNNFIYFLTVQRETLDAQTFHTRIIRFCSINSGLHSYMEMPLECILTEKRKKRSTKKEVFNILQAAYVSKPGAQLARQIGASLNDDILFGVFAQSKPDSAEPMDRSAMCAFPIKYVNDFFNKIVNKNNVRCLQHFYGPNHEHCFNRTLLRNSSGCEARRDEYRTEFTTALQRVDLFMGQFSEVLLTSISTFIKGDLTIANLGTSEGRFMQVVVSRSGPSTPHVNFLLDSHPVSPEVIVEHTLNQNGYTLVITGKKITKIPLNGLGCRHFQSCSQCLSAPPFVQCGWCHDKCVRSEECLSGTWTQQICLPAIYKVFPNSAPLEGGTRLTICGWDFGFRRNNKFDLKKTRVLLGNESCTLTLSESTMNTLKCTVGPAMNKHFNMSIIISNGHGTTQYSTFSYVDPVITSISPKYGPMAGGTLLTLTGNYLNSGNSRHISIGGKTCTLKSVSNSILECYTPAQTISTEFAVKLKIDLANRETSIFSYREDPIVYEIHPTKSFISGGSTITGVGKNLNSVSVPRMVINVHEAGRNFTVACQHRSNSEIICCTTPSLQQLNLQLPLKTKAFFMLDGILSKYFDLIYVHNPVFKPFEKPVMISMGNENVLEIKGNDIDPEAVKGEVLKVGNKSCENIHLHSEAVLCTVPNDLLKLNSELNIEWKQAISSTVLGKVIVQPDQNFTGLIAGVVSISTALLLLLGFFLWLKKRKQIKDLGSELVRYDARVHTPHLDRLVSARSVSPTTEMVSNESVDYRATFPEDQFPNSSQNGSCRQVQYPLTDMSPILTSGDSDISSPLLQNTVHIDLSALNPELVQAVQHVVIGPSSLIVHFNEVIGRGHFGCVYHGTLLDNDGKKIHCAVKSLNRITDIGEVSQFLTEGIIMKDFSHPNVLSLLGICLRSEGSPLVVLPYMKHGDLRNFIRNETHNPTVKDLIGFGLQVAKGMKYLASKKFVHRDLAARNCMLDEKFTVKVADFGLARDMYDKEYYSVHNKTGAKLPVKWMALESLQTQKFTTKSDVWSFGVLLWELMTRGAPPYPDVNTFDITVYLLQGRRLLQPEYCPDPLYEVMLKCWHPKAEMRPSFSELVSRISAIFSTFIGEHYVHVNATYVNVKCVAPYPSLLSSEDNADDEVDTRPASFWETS
How it was run: as §1

AURKC = target: T8, AURKC (Homo sapiens, UniProt Q9UQB9)
T8 construct: purchased Nanosyn (enzymatic panel); SGC in-house recombinant human kinases (DSF panel); Invitrogen (ALK1-6)
T8 sequence (Q9UQB9 1-309): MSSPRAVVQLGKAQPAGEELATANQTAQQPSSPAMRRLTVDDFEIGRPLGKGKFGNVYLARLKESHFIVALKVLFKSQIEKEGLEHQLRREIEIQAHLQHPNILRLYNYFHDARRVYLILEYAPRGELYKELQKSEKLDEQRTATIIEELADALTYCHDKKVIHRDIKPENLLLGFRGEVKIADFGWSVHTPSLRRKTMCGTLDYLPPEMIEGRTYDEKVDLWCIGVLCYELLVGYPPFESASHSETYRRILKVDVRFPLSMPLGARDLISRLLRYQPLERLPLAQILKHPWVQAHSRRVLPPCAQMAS
How it was run: as §1

T1 sequence (P22455 22-802): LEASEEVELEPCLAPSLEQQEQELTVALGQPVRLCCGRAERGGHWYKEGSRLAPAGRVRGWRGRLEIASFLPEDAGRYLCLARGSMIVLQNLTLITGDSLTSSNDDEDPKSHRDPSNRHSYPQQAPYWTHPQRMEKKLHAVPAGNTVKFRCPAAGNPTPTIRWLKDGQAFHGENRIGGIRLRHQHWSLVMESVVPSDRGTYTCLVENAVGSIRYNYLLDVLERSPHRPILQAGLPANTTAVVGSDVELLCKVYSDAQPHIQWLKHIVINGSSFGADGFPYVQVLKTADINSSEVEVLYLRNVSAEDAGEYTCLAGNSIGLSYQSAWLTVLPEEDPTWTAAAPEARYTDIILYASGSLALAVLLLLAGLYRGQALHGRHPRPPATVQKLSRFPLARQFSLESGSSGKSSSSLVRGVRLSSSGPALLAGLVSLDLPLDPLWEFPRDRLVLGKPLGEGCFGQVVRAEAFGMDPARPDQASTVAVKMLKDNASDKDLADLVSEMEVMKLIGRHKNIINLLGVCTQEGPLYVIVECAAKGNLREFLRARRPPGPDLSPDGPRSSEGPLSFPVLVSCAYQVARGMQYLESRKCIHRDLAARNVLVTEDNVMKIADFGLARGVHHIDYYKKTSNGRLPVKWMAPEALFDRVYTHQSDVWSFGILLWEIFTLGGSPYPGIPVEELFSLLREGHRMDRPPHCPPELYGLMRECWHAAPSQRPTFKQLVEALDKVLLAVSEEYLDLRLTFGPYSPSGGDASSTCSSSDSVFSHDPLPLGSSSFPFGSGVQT

Compound | inhibition at 0.1 µM (FGFR4) | inhibition at 1 µM (FGFR4) | inhibition at 0.1 µM (EPHB2) | inhibition at 1 µM (EPHB2) | inhibition at 0.1 µM (PIM1) | inhibition at 1 µM (PIM1) | inhibition at 0.1 µM (CDK5/p35) | inhibition at 1 µM (CDK5/p35) | inhibition at 0.1 µM (IRAK4) | inhibition at 1 µM (IRAK4) | inhibition at 0.1 µM (ROCK2) | inhibition at 1 µM (ROCK2) | inhibition at 0.1 µM (MET) | inhibition at 1 µM (MET) | inhibition at 0.1 µM (AURKC) | inhibition at 1 µM (AURKC)
COc1cc(-c2cc(-c3cccc(O)c3)cnc2N)cc(OC)c1OC [K02288, 3-[6-amino-5-(3,4,5-trimethoxy-phenyl)-pyridin-3-yl]-phenol] | 4% | 0% | 0% | 21% | 0.2% | 1.5% | 0.3% | 1.9% | -1% | 0.3% | -1% | 0.8% | 0.6% | -2% | -1% | 3.2%
c1ccc2c(-c3cnn4cc(-c5ccc(N6CCNCC6)cc5)cnc34)ccnc2c1 [LDN-193189] | 0.3% | 2.4% | 8.4% | 24% | -1% | -1% | 1.4% | 8.5% | 0.7% | 1.9% | 1.4% | 1.5% | 6.2% | 8.4% | 4.2% | 25%

Source: publication PMC3639963, “A New Class of Small Molecule Inhibitor of BMP Signaling” (PLoS ONE, 2013)
